Data published in US7981863B2, “Treatment of Parkinson's disease with PDGF” (Neuronova AB, priority 2001, dated 2011).

Experiments:
Flk-1 = settings: Calbiochem product data; cited from earlier work
[1] = test system: rat neural stem cells from the adult lateral ventricle wall; experiment: Expansion of rat neural stem cell cultures, total cell counts at 7 days; format: cell-based; settings: for block of the VEGF response / growth of neural stem cell cultures: total cell counts at 7 days; for growth of neural stem cell cultures: growth conditions (EGF and FGF-2), no recombinant VEGF, FIG. 30
Procedure: Neural stem cells were prepared according to the attached protocol. Cells were grown in serum-free medium, subcloned and used between passage 6 and 10. If not otherwise mentioned the experiments consisted of triplets for analysis and were independently repeated at least 3 times.
Basal Medium: Neurobasal medium (NB, Gibco BRL) & B27 supplement (Gibco BRL).
Growth Medium: NB, B27 supplement+20 ng/ml of FGF-2 (R&D Systems)+20 ng/ml EGF (R&D Systems)+2 μg/ml heparin (Sigma, Germany).
Cells were plated in Growth medium at 10.000 cells/ml and after 2 days switched to the experimental condition. Cells were kept under the experimental condition for 7 days.
Adult female Fischer-344 rats (3-4 months; Charles River, Germany) were killed via cervical dislocation, the brains of each rat were removed and stored at 4° C. in DPBS (PAN, Germany) with 4.5 g/L glucose (Merck, Germany) (DPBS/glu). Overlying meninges and blood vessels were removed. Ependymal zone including subependymal/subventricular zone form the lateral wall of the lateral ventricle were aseptically removed. The dissected tissue was transferred to fresh DPBS/glu, washed once, transferred to petri-dishes and dissociated mechanically into a single cell suspension. The cell suspension was washed in DPBS/glu in order to rinse off excess blood and resuspended in PPD-solution containing 0.01% Papain (Worthington Biochemicals, England), 0.1% dispase II (Boehringer, Germany), 0.01% DNase I (Worthington Biochemicals, England) and 12.4 mM MgSO4 in HBSS (PAN, Germany) without Mg^++/Ca^++ (PAA, Germany) and digested for 30 to 40 min at room temperature. The cell solution was triturated every 10 min. Dissociated cells were collected and resuspended in serum-free DMEM/F12 medium containing 2 mM L-glutamine and 0.1 g/L penicillin/streptomycin and washed three times with accurate trituration with a blue tip. Finally the single cell suspension was resuspended in Neurobasal medium (Gibco BRL, Germany) supplemented with B27 (Gibco BRL, Germany) (NB/B27), 2 mM L-glutamine (PAN, Germany), 0.1 g/L penicillin/streptomycin (PAN, Germany), 2 μg/ml heparin (Sigma, Germany), 20 ng/ml bFGF-2 (R&D Systems, Germany) and 20 ng/ml EGF (R&D Systems, Germany). Live cells were counted by trypan blue exclusion assay in a hemocytometer. Cells were seeded in T-25 culture flasks and cultures were maintained at 37° C. in an incubator with 95% air, 5% CO2. Single cells began to form spheres within 5 to 7 days of suspension culture and continued to grow in mass and number over the next weeks. Media were changed every 7 days.
The culture medium containing floating neurospheres was collected in a 15 ml centrifuge tube and centrifuged at 800 rpm. The pellet was resuspended in 200 μl of Accutase (Innovative Cell Technologies Inc., USA, distributed by PAA, Germany) and triturated about 10 times using a pipette. Then, the cell suspension was incubated at 37° C. for 10 min. Dissociated spheres were again triturated and resuspended in 800 μl of NB/B27 medium. An aliquot was counted by trypan blue exclusion assay in a hemocytometer to determine the amount of live and dead cells. 1×10^5 cells were plated in T75 culture flasks for long term passaging (10 ml of culture medium per flask) in NB/B27 medium. The cells obtained after Accutase-treatment of primary neurospheres proliferated and yielded secondary neurospheres. Secondary neurospheres were passaged 7 to 9 days after plating primary neurosphere cells. Similar to primary cultures and primary neurospheres, single cells obtained after dissociation of secondary neurospheres proliferated and yielded tertiary neurospheres. […]

Mouse Neural Stem Cells = experiment: Neuronal differentiation (β-III Tubulin) of adult mouse neural stem cells; format: cell-based; settings: 1 nM, 7 days
Procedure: Adult mouse neurosperes were dissociated with trypsin (Gibco) into single cells and transferred to poly-D-Lysine plates (BD) in the above culture medium, without growth factors, supplemented with 1% Fetal Calf Serum (Gibco). The cells were incubated over night to adhere to the plate. The medium was changed to culture medium, without growth factors, supplemented with 1 nM PDGF-AA or PDFG-BB (both from R&D Systems). The medium with new substance added every second day. The cells were incubated for a total of 7 days.
The cells were washed two times with PBS (Gibco) and fixed for 15 min RT with 4% Formaldehyde (Sigma) and permeabilized 20 min RT in 0.1% Triton X-100 (Sigma) in PBS. After fixation and permeabilization the cells were labelled with mouse monoclonal anti-β-III Tubulin (1:500 Promega). Primary antibody was visualized with anti mouse Texas-Red (1:100 Vector Laboratories). All antibodies were diluted in PBS with 0.1% Triton X-100.
The cells were washed twice with PBS (Gibco) and lysed with 200 ul lysis buffer/well. The lysis buffer contained PBS, 0.1% Triton X-100, 1 mM EDTA and 1 tab1. Protease inhibitor cocktail (Roche). The samples were run on a 4-12% Bis-Tris gel (Novex) under reduced conditions with MOPS buffer (Novex) and blotted onto a Hybond ECL nitrocellulose membrane (Amersham Biotech). Blocked in 5% ECL-Block (Amersham Biotech) in PBS+0.1% Tween 20 (Sigma). The membranes were labelled with mouse monoclonal anti-β-III Tubulin (1:5000 Promega). The primary antibody was detected using a secondary antibody anti-mouse-HRP (1:10000 Amersham Biotech) and ECL Plus+ Western Blot Detection Kit (Amersham Biotech). All antibodies were diluted in PBS with 0.1% Triton X-100, 1% ECL Block. The signal were then captured on ECL Hyper Film (Amersham Biotech)

[2] = test system: Mouse Cultured Neural Stemcells/Progenitors; experiment: GFAP and β-III Tubulin in adherent mouse neural stem cells (Western blot, immunocytochemistry); format: cell-based
Procedure: NSCs, cultured as described above, were seeded from passage 2 into DMEM/F12 supplemented with B27 into a 24-well plate (poly-D-lysine-coated) as single cells (70.000 cells/well), to which PDGF-AA was added at the concentration of 1 nM. The cells were then differentiated for 5 days changing medium plus/minus PDGF-AA every 48 hours. At day 6 the cells were harvested and Western blots were performed as described elsewhere (Patrone C et al (1999) Proc Natl Acad Sci USA. 96(19):10905-10). A neuronal marker antibody against β-III Tubulin, 1:5000 (BioSite), or a glial marker antibody against glial fibrillary acidic protein (GFAP) 1:5000, (DAKO) was used to measure phenotypic fates.
In another set of experiments the effects of PDGF-AA were studied with immunocytochemical methods in fixed adherently cultured neural stem cells. […] In other experiments with PDGF-AA, analyzed by immunocytochemistry, it was shown that the factor caused a general shift from a stem cell phenotype to a progenitor phenotype in that cultures contained both of the markers, GFAP and β-III Tubulin. […] In concurrent experiments the effect of PDGF-BB was also studied.

[3] = test system: cultured, non-adherent mouse neurospheres; experiment: Intracellular ATP assay, proliferation of cultured mouse neurospheres; format: cell-based; settings: FIG. 1
Procedure: The anterior lateral wall of the lateral ventricle of 5-6 week old mice was enzymatically dissociated in 0.8 mg/ml hyaluronidase and 0.5 mg/ml trypsin in DMEM containing 4.5 mg/ml glucose and 80 units/ml DNase at 37° C. for 20 min. The cells were gently triturated and mixed with three volumes of Neurosphere medium (DMEM/F12, B27 supplement, 125 mM HEPES pH 7.4) containing 20 ng/ml EGF (unless otherwise stated), 100 units/ml penicillin and 100 μg/ml streptomycin. After passing through a 70 μm strainer, the cells were pelleted at 160×g for 5 min. The supernatant was subsequently removed and the cells resuspended in Neurosphere medium supplemented as above, plated out in culture dishes and incubated at 37° C. Neurospheres were ready to be split approximately 7 days after plating.
To split the neurospheres, cells were collected by centrifugation at 160×g for 5 min. The conditioned supernatant (conditioned medium) was removed and saved. The neurospheres were resuspended in 0.5 ml Trypsin/EDTA in HBSS (1×), incubated at 37° C. for 2 min and triturated gently to aid dissociation. Following a further 3 min incubation at 37° C. and trituration, 3 volumes of ice cold Neurosphere medium medium w/o EGF were added to stop further trypsin activity. […]
After 3 days of treatment, intracelluar ATP was measured using the ATP SL kit (Biothema) according to the manufacturer's instructions.

[4] = test system: Neural stem cell cultures; settings: 50 ng/ml VEGF, 100 nM PADQ or 700 nM SU1498 for 7 days
Procedure: BrdU (10 μM) was added to the culture medium 24 hrs before cells were harvested and lysed. DNA was extracted and BrdU content was determined using an anti-BrdU-ELISA. The data are presented as percent changes in optical density compared to control (Growth medium).

adult rats = settings: four weeks after 7 days of continuous VEGF infusion into the lateral ventricle
[5] = test system: cells from the lateral ventricle wall; settings: after intraventricular infusion, compared to aCSF controls; FIG. 33
[6] = basal medium, VEGF 50 ng/ml, PADQ 100 nM, SU1498 700 nM
[7] = growth conditions (including EGF and FGF-2)
[8] = 1 nM, 6 days, adherent culture, compared to treatment with EGF
[9] = fixed adherently cultured neural stem cells

For `COc1cc2ncnc(Nc3ccc(Cl)cc3F)c2cc1OC` [PADQ], the IC50 (Flk-1) is given as 100 nM, the “block of the VEGF response” value [1, 6] is given as “able to block the VEGF response” and the “growth of neural stem cell cultures” value [1] is given as “significantly reduce the growth”. The “block of the VEGF response” value [1, 7] was “able to block the VEGF response”.
For `CC(C)c1cc(/C=C(\C#N)C(=O)NCCCc2ccccc2)cc(C(C)C)c1O` [SU1498, (E)-3-(3,5-Diisopropyl-4-hydroxyphenyl)-2-[(3-phenyl-n-propyl)amino-carbonyl]acrylonitrile], the IC50 (Flk-1) is given as 700 nM, the “block of the VEGF response” value [1, 6] is given as “able to block the VEGF response” and the “growth of neural stem cell cultures” value [1] is given as “significantly reduce the growth”. The “block of the VEGF response” value [1, 7] was “able to block the VEGF response”.
For “PDGF-AA: human recombinant PDGF-AA, platelet derived growth factor A-chain homodimer”, the “number of β-III Tubulin positive cells in culture” value (Mouse Neural Stem Cells; compared to the control, FIG. 5) was “significantly increase the number of β-III Tubulin positive cells”, the “levels of β-III Tubulin protein (Western blot)” value (Mouse Neural Stem Cells; compared with the control, FIG. 6) was “significantly increased levels of β-III Tubulin protein” and the “neuronal differentiation of cultured mouse neural stem cells/progenitors” value (Mouse Neural Stem Cells; FIG. 5 and FIG. 6) was “trigger neuronal differentiation”. The “GFAP (Western blot)” value [2, 8] was “downregulation of GFAP”, the “β-III Tubulin neuronal marker (Western blot)” value [2, 8] was “significant increase” and the “GFAP (immunocytochemistry)” value [2, 9] was “down regulation of GFAP”. For the same compound, the “β-III Tubulin (immunocytochemistry)” value [2, 9] was “upregulation of β-III Tubulin”, the “effect on the proliferative effect of PDGF-BB when added together” value ([3]; PDGF-AA added together with PDGF-BB, B27 medium) was “did not alter the proliferative effect of PDGF-BB” and the “proliferative effect (intracellular ATP)” value ([3]; growth media supplemented with B27, 1 nM-0.0005 nM, 3 days of treatment) was “weaker compared to BB”.
With VEGF the “BrdU incorporation (proliferation ELISA)” value [4] was “more BrdU”, the “DNA strand breaks (apoptosis ELISA)” value [4] was “reduced the amount of DNA strand breaks” and the “BrdU labeled cells in the dentate gyrus” value (adult rats) was “marked increase”. The “number of spheres formed in culture from lateral ventricle wall cells” value [5] was “significantly increased”, the “stimulation of proliferation of neural stem cell cultures” value ([1]; different concentrations, 7 days, FIG. 24, FIG. 25) was “dose-dependent stimulatory effect” and the “ED50 (expansion of neural stem cell cultures)” value ([1]; growth medium, 7 days, FIG. 27) was ~0.01 µg/mL. The “concentration of maximal stimulation” value ([1]; growth medium, 7 days, FIG. 27) was 50 ng/mL.
